Results: patent US8921362B2, “6,7-dialkoxy quinazoline derivatives and methods of treating drug resistant and other tumors” (Natco Pharma Limited, priority 2008, dated 2014)

Experiments:
[1] = target: ERBB2 (Homo sapiens, UniProt P04626); test: KinomeScan; format: binding; design: purchased Ambit Biosciences Corp; host or cells: T7 phage in E. coli host derived from BL21; details: read-out: % Ctrl @ 10000 nM
Procedure: (§1) Kinase assays: Assays were performed as described in Fabian et al. (2005) Nature Biotechnology, vol. 23, p. 329. Kinase-tagged T7 phage strains were grown in parallel in 24 or 96-well blocks in an E. coli host derived from the BL21 strain. E. coli were grown to log-phase and infected with T7 phage from a frozen stock (multiplicity of infection ˜0.1) and incubated with shaking at 32° C. until lysis (−90 minutes). The lysates were centrifuged and filtered to remove cell debris. […] The liganded beads were blocked with excess biotin and washed with blocking buffer (SeaBlock (Pierce), 1% BSA, 0.05% Tween 20, 1 mM DTT) to remove unbound ligand and to reduce non-specific phage binding.
(§2) Test compounds were prepared as 40× stocks in DMSO and diluted into the aqueous environment. 2.5% DMSO was added to control assays lacking a test compound. All reactions were performed in polystyrene 96-well plates that had been pretreated with blocking buffer in a final volume of 0.04 ml. […] The phage titer in the eluates was measured by quantitative PCR.

[2] = target: ERBB4 (Homo sapiens, UniProt Q15303); test: KinomeScan; format: binding; design: purchased Ambit Biosciences Corp; host or cells: T7 phage in E. coli host derived from BL21; details: read-out: % Ctrl @ 10000 nM
Procedure: as §1, §2

[3] = Acute toxicity (LD0, LD50); format: in vivo; details: both, mouse, in vivo, po, 7 days
Procedure: […]. The doses 500, 750, 1000 and 2000 mg/Kg were administered orally. Each group included 5 mice. […] The survived animals were autopsied for asserting the absorption of compound through g.i.t. The LD50 was determined according to the method described in Litchfield and Wilcoxon (J. Pharmacol. Exp. Ther. 1949, 96:99-113).

[4] = target: T1, ANKK1 (Homo sapiens, UniProt Q8NFD2); test: KinomeScan; format: binding; details: read-out: % Ctrl @ 10000 nM
T1 construct: host or cells: E. coli (BL21-derived), T7 phage lysate
Outline: (§3)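 qPCR titer; phage-tagged kinase vs bead ligand; compound diluted from 40× DMSO stock; 2.5% DMSO control.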

[5] = target: T2, ABL1 (Homo sapiens, UniProt P00519); test: KinomeScan; format: binding; details: read-out: % Ctrl @ 10000 nM
T2 construct: host or cells: E. coli (BL21-derived), T7 phage lysate
Outline: as §3

[6] = target: T3, AXL (Homo sapiens, UniProt P30530); test: KinomeScan; format: binding; details: read-out: % Ctrl @ 10000 nM
T3 construct: host or cells: E. coli host derived from BL21
Outline: as §3

[7] = target: T4, PRKG1 (Homo sapiens, UniProt Q13976); test: KinomeScan; format: binding; details: read-out: % Ctrl @ 10000 nM
T4 construct: host or cells: T7 phage in E. coli host derived from BL21
Outline: as §3

[8] = target: T5, MELK (Homo sapiens, UniProt Q14680); test: KinomeScan; format: binding; details: read-out: % Ctrl @ 10000 nM
T5 construct: host or cells: E. coli host derived from the BL21 strain, infected with T7 phage
Outline: as §3

[9] = target: T6, CLK2 (Homo sapiens, UniProt P49760); test: KinomeScan; format: binding; details: read-out: % Ctrl @ 10000 nM
T6 construct: host or cells: T7 phage in E. coli host derived from BL21
Outline: as §3

[10] = target: T7, TNIK (Homo sapiens, UniProt Q9UKE5); test: KinomeScan; format: binding; details: read-out: % Ctrl @ 10000 nM
T7 construct: host or cells: E. coli host derived from BL21, T7 phage
Outline: as §3

[11] = target: T8, FLT3 (Homo sapiens, UniProt P36888); test: KinomeScan; format: binding; details: read-out: % Ctrl @ 10000 nM
T8 construct: host or cells: T7 phage in E. coli host derived from BL21
Outline: as §3

[12] = target: T9, MAP3K4 (Homo sapiens, UniProt Q9Y6R4); test: KinomeScan; format: binding; details: read-out: % Ctrl @ 10000 nM
T9 construct: host or cells: E. coli host derived from the BL21 strain, infected with T7 phage
Outline: as §3

[13] = target: T10, BRAF (Homo sapiens, UniProt P15056); test: KinomeScan; format: binding; details: read-out: % Ctrl @ 10000 nM
T10 construct: host or cells: E. coli host derived from BL21
Outline: as §3

[14] = target: T11, DRAK2 (Homo sapiens, UniProt O94768); test: KinomeScan; format: binding; details: read-out: % Ctrl @ 10000 nM
T11 construct: purchased Ambit Biosciences Corp (KinomeScan); host or cells: T7 phage in E. coli host derived from BL21
Outline: as §3

[15] = target: T12, STK36 (Homo sapiens, UniProt Q9NRP7); test: KinomeScan; format: binding; details: read-out: % Ctrl @ 10000 nM
T12 construct: host or cells: T7 phage grown in E. coli (BL21-derived)
Outline: as §3

[16] = target: T13, PIK3CA(E545K) (Homo sapiens, UniProt P42336, E545K); test: KinomeScan; format: binding; details: read-out: % Ctrl @ 10000 nM
T13 construct: host or cells: E. coli host derived from BL21, infected with T7 phage
Outline: as §3

[17] = target: T14, PRKCD (Homo sapiens, UniProt Q05655); test: KinomeScan; format: binding; details: read-out: % Ctrl @ 10000 nM
T14 construct: host or cells: T7 phage in E. coli host derived from BL21
Outline: as §3

[18] = target: T15, FLT1 (Homo sapiens, UniProt P17948); test: KinomeScan; format: binding; details: read-out: % Ctrl @ 10000 nM
T15 construct: host or cells: T7 phage in E. coli host derived from BL21
Outline: as §3

[19] = target: T16, EPHB3 (Homo sapiens, UniProt P54753); test: KinomeScan; format: binding; details: read-out: % Ctrl @ 10000 nM
T16 construct: purchased Ambit Biosciences Corp; host or cells: T7 phage in E. coli host derived from BL21
Outline: as §3

[20] = target: T17, CSNK1D (Homo sapiens, UniProt P48730); test: KinomeScan; format: binding; details: read-out: % Ctrl @ 10000 nM
T17 construct: host or cells: T7 phage in E. coli host derived from BL21
Outline: as §3

[21] = target: T18, FGFR1 (Homo sapiens, UniProt P11362); test: KinomeScan; format: binding; details: read-out: % Ctrl @ 10000 nM
T18 construct: host or cells: T7 phage in E. coli host derived from BL21
Outline: as §3

[22] = target: T19, MLK3 (Homo sapiens, UniProt Q16584); test: KinomeScan; format: binding; details: read-out: % Ctrl @ 10000 nM
T19 construct: host or cells: T7 phage grown in E. coli host derived from BL21
Outline: as §3

[23] = target: T20, IGF1R (Homo sapiens, UniProt P08069); test: KinomeScan; format: binding; details: read-out: % Ctrl @ 10000 nM
T20 construct: host or cells: T7 phage grown in E. coli host derived from BL21
Outline: as §3

[24] = target: T21, CDK9 (Homo sapiens, UniProt P50750); test: KinomeScan; format: binding; details: read-out: % Ctrl @ 10000 nM
T21 construct: host or cells: T7 phage in E. coli host derived from BL21
Outline: as §3

[25] = target: T22, PKN1 (Homo sapiens, UniProt Q16512); test: KinomeScan; format: binding; details: read-out: % Ctrl @ 10000 nM
T22 construct: host or cells: T7 phage in E. coli host derived from BL21
Outline: as §3

[26] = target: T23, FGR (Homo sapiens, UniProt P09769); test: KinomeScan; format: binding; details: read-out: % Ctrl @ 10000 nM
T23 construct: host or cells: T7 phage in E. coli host derived from BL21
Outline: as §3

[27] = target: T24, ACVRL1 (Homo sapiens, UniProt P37023); test: KinomeScan; format: binding; details: read-out: % Ctrl @ 10000 nM
T24 construct: host or cells: E. coli (BL21-derived), T7 phage lysate
Outline: as §3

[28] = target: T25, TRKA (Homo sapiens, UniProt P04629); test: KinomeScan; format: binding; details: read-out: % Ctrl @ 10000 nM
T25 construct: host or cells: E. coli host derived from BL21, T7 phage
Outline: as §3

[29] = target: T26, ABL1(Q252H) (Homo sapiens, UniProt P00519, Q252H); test: KinomeScan; format: binding; details: read-out: % Ctrl @ 10000 nM
T26 construct: host or cells: E. coli (BL21-derived), T7 phage lysate
Outline: as §3

[30] = target: T27, BMX (Homo sapiens, UniProt P51813); test: KinomeScan; format: binding; details: read-out: % Ctrl @ 10000 nM
T27 construct: host or cells: E. coli host derived from BL21
Outline: as §3

T5 sequence (Q14680 whole entry): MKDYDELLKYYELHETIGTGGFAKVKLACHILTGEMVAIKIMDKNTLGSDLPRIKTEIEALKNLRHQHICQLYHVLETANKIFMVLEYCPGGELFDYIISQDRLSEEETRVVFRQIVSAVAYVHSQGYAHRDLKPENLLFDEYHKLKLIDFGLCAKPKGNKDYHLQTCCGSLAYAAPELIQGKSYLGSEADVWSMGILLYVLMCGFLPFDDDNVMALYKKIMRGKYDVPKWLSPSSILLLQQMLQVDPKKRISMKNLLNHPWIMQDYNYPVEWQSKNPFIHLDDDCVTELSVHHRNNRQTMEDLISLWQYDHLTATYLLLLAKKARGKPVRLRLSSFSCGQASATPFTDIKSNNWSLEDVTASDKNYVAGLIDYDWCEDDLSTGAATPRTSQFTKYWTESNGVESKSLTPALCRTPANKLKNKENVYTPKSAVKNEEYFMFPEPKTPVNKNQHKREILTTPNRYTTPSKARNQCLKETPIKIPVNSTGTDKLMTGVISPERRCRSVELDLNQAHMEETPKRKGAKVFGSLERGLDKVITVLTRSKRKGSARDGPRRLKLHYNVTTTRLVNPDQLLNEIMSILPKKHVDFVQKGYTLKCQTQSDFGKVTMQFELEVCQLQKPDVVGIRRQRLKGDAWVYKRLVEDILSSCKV
T3 sequence (P30530 26-894): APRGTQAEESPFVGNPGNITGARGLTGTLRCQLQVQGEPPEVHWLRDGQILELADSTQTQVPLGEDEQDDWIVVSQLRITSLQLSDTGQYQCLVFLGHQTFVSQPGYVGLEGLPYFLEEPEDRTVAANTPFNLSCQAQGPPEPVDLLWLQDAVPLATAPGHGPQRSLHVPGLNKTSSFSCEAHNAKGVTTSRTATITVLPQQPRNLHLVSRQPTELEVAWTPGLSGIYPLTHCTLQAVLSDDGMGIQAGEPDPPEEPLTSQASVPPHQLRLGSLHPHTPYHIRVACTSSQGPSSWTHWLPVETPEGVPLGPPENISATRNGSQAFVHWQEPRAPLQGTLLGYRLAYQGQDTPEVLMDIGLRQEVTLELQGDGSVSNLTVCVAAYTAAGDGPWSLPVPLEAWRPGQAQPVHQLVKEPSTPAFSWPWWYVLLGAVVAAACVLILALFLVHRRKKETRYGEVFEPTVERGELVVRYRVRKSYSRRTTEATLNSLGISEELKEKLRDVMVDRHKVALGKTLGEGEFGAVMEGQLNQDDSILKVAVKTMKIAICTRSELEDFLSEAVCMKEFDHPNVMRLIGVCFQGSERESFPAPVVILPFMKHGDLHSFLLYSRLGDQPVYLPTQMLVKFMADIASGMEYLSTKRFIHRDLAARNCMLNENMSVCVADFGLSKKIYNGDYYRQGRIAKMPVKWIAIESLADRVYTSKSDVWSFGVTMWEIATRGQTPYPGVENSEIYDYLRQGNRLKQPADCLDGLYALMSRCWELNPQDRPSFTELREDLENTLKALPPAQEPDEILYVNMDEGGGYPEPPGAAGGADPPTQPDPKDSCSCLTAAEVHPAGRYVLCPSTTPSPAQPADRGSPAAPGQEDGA
T24 sequence (P37023 22-503): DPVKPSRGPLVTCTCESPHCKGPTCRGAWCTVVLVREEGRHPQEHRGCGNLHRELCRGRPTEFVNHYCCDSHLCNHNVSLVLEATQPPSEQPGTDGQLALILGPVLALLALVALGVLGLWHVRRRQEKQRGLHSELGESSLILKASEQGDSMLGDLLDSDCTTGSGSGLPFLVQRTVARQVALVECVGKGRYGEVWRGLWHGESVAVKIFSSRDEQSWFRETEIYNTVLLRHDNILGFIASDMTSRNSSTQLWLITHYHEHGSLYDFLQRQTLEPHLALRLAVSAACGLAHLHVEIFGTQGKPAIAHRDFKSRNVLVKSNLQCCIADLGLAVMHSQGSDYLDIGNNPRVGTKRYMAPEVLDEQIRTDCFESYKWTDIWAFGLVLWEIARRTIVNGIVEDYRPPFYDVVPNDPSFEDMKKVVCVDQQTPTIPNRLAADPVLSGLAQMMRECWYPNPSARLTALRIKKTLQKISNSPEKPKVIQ
T13 sequence (P42336 whole entry E545K): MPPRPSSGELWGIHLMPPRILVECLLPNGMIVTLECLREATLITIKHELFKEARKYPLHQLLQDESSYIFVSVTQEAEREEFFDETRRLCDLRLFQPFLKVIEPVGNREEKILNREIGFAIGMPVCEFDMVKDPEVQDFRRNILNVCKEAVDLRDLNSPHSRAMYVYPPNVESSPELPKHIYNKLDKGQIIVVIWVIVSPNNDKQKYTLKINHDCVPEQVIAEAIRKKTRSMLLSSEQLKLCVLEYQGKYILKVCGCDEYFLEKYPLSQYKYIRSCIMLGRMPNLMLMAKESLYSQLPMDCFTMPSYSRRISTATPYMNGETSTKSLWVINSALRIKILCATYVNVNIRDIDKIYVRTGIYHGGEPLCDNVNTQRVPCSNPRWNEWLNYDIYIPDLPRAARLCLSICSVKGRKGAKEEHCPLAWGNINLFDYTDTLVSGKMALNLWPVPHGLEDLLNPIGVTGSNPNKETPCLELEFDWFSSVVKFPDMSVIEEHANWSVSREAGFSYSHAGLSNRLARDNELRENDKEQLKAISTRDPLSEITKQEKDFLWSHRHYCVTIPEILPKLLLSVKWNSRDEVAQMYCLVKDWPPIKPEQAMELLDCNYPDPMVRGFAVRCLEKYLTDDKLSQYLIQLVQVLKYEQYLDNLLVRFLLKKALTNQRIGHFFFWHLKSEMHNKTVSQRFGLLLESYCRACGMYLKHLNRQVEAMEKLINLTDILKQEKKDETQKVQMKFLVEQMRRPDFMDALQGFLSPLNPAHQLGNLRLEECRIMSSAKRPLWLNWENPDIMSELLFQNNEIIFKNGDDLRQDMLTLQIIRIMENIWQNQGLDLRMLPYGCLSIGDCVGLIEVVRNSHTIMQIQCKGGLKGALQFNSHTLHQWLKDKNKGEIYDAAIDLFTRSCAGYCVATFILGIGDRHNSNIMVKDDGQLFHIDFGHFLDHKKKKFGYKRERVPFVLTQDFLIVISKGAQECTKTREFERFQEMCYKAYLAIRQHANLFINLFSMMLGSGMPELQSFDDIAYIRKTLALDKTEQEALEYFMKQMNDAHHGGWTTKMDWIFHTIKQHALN
T11 sequence (O94768 whole entry): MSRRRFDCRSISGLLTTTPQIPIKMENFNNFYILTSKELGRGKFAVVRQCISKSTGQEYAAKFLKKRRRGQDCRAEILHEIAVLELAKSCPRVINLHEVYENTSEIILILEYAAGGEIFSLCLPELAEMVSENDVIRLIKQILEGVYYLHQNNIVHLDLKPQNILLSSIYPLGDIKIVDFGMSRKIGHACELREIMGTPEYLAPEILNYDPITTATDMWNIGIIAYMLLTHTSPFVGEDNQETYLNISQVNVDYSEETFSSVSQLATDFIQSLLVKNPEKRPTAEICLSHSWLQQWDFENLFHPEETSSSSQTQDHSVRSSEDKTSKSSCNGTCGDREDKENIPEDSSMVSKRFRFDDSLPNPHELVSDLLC
T9 sequence (Q9Y6R4 whole entry): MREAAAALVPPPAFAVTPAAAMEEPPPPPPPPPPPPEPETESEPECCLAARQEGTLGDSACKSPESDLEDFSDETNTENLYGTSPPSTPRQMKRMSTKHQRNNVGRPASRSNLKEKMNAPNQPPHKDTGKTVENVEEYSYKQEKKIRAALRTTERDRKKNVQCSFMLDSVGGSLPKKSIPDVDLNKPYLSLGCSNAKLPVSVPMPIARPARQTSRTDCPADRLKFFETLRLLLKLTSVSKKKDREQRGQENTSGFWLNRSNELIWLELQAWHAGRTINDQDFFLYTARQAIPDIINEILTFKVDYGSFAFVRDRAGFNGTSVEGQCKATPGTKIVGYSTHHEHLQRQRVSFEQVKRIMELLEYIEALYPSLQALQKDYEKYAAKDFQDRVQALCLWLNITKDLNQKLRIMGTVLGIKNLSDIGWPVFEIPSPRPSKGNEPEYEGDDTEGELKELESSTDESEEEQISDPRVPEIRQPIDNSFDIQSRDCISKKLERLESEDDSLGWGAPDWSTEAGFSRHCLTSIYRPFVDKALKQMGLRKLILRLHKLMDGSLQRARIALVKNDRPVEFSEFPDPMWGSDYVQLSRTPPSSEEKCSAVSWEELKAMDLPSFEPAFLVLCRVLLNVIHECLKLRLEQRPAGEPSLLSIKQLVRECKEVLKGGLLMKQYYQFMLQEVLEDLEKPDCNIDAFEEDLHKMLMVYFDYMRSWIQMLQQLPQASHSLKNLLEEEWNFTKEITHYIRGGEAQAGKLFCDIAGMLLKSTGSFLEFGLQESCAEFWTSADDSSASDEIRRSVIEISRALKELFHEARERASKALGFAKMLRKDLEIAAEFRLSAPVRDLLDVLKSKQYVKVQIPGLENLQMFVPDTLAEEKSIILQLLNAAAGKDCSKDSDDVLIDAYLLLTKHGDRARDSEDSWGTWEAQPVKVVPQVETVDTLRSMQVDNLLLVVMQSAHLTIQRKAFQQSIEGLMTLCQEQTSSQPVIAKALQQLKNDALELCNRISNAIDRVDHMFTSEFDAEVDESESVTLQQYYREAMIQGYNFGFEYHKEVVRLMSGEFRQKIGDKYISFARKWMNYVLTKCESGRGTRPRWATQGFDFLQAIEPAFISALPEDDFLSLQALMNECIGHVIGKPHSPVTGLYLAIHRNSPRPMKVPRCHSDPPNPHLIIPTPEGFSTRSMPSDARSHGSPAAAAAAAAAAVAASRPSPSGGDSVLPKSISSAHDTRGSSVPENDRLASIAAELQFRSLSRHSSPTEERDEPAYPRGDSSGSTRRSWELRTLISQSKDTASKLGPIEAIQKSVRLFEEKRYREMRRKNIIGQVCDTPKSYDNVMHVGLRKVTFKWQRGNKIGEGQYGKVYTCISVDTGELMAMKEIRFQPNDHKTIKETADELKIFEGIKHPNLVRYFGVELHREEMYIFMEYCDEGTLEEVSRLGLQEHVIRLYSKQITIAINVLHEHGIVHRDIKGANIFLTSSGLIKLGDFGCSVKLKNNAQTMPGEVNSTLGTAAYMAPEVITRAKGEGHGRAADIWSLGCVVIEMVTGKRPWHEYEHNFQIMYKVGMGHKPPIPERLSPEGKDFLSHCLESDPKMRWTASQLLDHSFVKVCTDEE

Q: With `C#Cc1cccc(Nc2ncnc3cc(OC)c(OCCCN4CCOCC4)cc23)c1` [NRC-2694, N-(3-ethynylphenyl)-7-methoxy-6-[3-(4-morpholinyl)propoxy]-4-quinazolinamine] as the molecule, how does the remaining binding at 10 µM [1] read?
A: 31%

Q: What about the remaining binding at 10 µM [2] of the same molecule?
A: 3.3%

Q: What about the LD0 [3] of the same molecule?
A: 2000 mg/kg

Q: What about the remaining binding at 10 µM [4] of the same molecule?
A: 73%

Q: And the remaining binding at 10 µM [5]?
A: 67%

Q: And the remaining binding at 10 µM [6]?
A: 25%

Q: What about the remaining binding at 10 µM [7] of the same molecule?
A: 75%

Q: And the remaining binding at 10 µM [8]?
A: 57%

Q: And the remaining binding at 10 µM [9]?
A: 64%

Q: And the remaining binding at 10 µM [10]?
A: 17%

Q: And the remaining binding at 10 µM [11]?
A: 49%

Q: What about the remaining binding at 10 µM [12] of the same molecule?
A: 53%

Q: What about the remaining binding at 10 µM [13] of the same molecule?
A: 81%

Q: And the remaining binding at 10 µM [14]?
A: 58%

Q: What about the remaining binding at 10 µM [15] of the same molecule?
A: 4.6%

Q: And the remaining binding at 10 µM [16]?
A: 100%

Q: What about the remaining binding at 10 µM [17] of the same molecule?
A: 84%

Q: What about the remaining binding at 10 µM [18] of the same molecule?
A: 64%

Q: And the remaining binding at 10 µM [19]?
A: 75%

Q: And the remaining binding at 10 µM [20]?
A: 25%

Q: What about the remaining binding at 10 µM [21] of the same molecule?
A: 64%

Q: What about the remaining binding at 10 µM [22] of the same molecule?
A: 72%

Q: What about the remaining binding at 10 µM [23] of the same molecule?
A: 74%

Q: And the remaining binding at 10 µM [24]?
A: 86%

Q: What about the remaining binding at 10 µM [25] of the same molecule?
A: 50%

Q: What about the remaining binding at 10 µM [26] of the same molecule?
A: 19%

Q: What about the remaining binding at 10 µM [27] of the same molecule?
A: 91%

Q: What about the remaining binding at 10 µM [28] of the same molecule?
A: 100%

Q: What about the remaining binding at 10 µM [29] of the same molecule?
A: 15%

Q: What about the remaining binding at 10 µM [30] of the same molecule?
A: 73%
